PubChem BioAssay (NCI)
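Test compounds were applied to cells in 96-well plates for 48 hours at 5 doses. TGI marks complete inhibition of growth.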

Experiments:
Experiment in all cases: NCI tumour cell line growth inhibition, 48 h
A549 NSCLC = system: A549 NSCLC
M14 melanoma = system: M14 melanoma
HCT-116 colon = system: HCT-116 colon
OVCAR-8 ovarian = system: OVCAR-8 ovarian
OVCAR-5 ovarian = system: OVCAR-5 ovarian
LXFL 529 NSCLC = system: LXFL 529 NSCLC
NCI-H23 lung = system: NCI-H23 lung
CAKI-1 renal = system: CAKI-1 renal
SK-MEL-2 melanoma = system: SK-MEL-2 melanoma
SNB-75 CNS = system: SNB-75 CNS
SNB-19 CNS = system: SNB-19 CNS
HOP-92 NSCLC = system: HOP-92 NSCLC
NCI-H522 lung = system: NCI-H522 lung
NCI-H226 lung = system: NCI-H226 lung
OVCAR-4 ovarian = system: OVCAR-4 ovarian
CCRF-CEM leukemia = system: CCRF-CEM leukemia
RXF-631 renal = system: RXF-631 renal
SK-MEL-28 melanoma = system: SK-MEL-28 melanoma
A498 renal = system: A498 renal
TK-10 renal = system: TK-10 renal
IGROV1 ovarian = system: IGROV1 ovarian
HL-60(TB) leukemia = system: HL-60(TB) leukemia
UACC-62 melanoma = system: UACC-62 melanoma
EKVX NSCLC = system: EKVX NSCLC
SNB-78 CNS = system: SNB-78 CNS
HT29 colon = system: HT29 colon
HOP-18 NSCLC = system: HOP-18 NSCLC
MALME-3M melanoma = system: MALME-3M melanoma
HCT-15 colon = system: HCT-15 colon
HCC-2998 colon = system: HCC-2998 colon
SF-295 CNS = system: SF-295 CNS
K-562 leukemia = system: K-562 leukemia
XF 498 CNS = system: XF 498 CNS
RXF 393 renal = system: RXF 393 renal
COLO 205 colon = system: COLO 205 colon
OVCAR-3 ovarian = system: OVCAR-3 ovarian
SN12C renal = system: SN12C renal
SF-268 CNS = system: SF-268 CNS
RPMI-8226 leukemia = system: RPMI-8226 leukemia
UO-31 renal = system: UO-31 renal
U251 CNS = system: U251 CNS
786-0 renal = system: 786-0 renal
HOP-62 NSCLC = system: HOP-62 NSCLC
LOX IMVI melanoma = system: LOX IMVI melanoma
UACC-257 melanoma = system: UACC-257 melanoma
SF-539 CNS = system: SF-539 CNS
SR leukemia = system: SR leukemia
NCI-H460 lung = system: NCI-H460 lung
DLD-1 colon = system: DLD-1 colon
MOLT-4 leukemia = system: MOLT-4 leukemia
M19-MEL melanoma = system: M19-MEL melanoma
SW-620 colon = system: SW-620 colon
KM20L2 colon = system: KM20L2 colon
SK-MEL-5 melanoma = system: SK-MEL-5 melanoma
KM12 colon = system: KM12 colon
DMS 114 small cell lung = system: DMS 114 small cell lung
DMS 273 small cell lung = system: DMS 273 small cell lung
SK-OV-3 ovarian = system: SK-OV-3 ovarian
ACHN renal = system: ACHN renal

**Q.** Which results are given for `COc1ccc(/C=C/c2cc(OC)cc(OC)c2)cc1`?
**A.** TGI (A549 NSCLC): > 100 µM; TGI (M14 melanoma): 53.1 µM; TGI (HCT-116 colon): > 58 µM; TGI (OVCAR-8 ovarian): > 100 µM; TGI (OVCAR-5 ovarian): > 50.1 µM; TGI (LXFL 529 NSCLC): > 100 µM; TGI (NCI-H23 lung): > 100 µM; TGI (CAKI-1 renal): 46.8 µM; TGI (SK-MEL-2 melanoma): > 57 µM; TGI (SNB-75 CNS): > 35.6 µM; TGI (SNB-19 CNS): > 100 µM; TGI (HOP-92 NSCLC): > 100 µM; TGI (NCI-H522 lung): 11.6 µM; TGI (NCI-H226 lung): > 31.1 µM; TGI (OVCAR-4 ovarian): > 100 µM; TGI (CCRF-CEM leukemia): 36.6 µM; TGI (RXF-631 renal): > 53.2 µM; TGI (SK-MEL-28 melanoma): 65.7 µM; TGI (A498 renal): > 61 µM; TGI (TK-10 renal): > 100 µM; TGI (IGROV1 ovarian): > 100 µM; TGI (HL-60(TB) leukemia): 8.52 µM; TGI (UACC-62 melanoma): > 100 µM; TGI (EKVX NSCLC): > 100 µM; TGI (SNB-78 CNS): 8.71 µM; TGI (HT29 colon): > 36.6 µM; TGI (HOP-18 NSCLC): > 100 µM; TGI (MALME-3M melanoma): > 100 µM; TGI (HCT-15 colon): > 100 µM; TGI (HCC-2998 colon): 33.2 µM; TGI (SF-295 CNS): > 31.3 µM; TGI (K-562 leukemia): > 100 µM; TGI (XF 498 CNS): 98.9 µM; TGI (RXF 393 renal): 10.7 µM; TGI (COLO 205 colon): 10.7 µM; TGI (OVCAR-3 ovarian): 8.78 µM; TGI (SN12C renal): > 45.4 µM; TGI (SF-268 CNS): > 28.2 µM; TGI (RPMI-8226 leukemia): 23.7 µM; TGI (UO-31 renal): > 64.2 µM; TGI (U251 CNS): > 59.8 µM; TGI (786-0 renal): 59.6 µM; TGI (HOP-62 NSCLC): 32.6 µM; TGI (LOX IMVI melanoma): > 100 µM; TGI (UACC-257 melanoma): > 100 µM; TGI (SF-539 CNS): 11 µM; TGI (SR leukemia): > 100 µM; TGI (NCI-H460 lung): > 34.4 µM; TGI (DLD-1 colon): > 100 µM; TGI (MOLT-4 leukemia): > 51 µM; TGI (M19-MEL melanoma): > 100 µM; TGI (SW-620 colon): > 100 µM; TGI (KM20L2 colon): 11.7 µM; TGI (SK-MEL-5 melanoma): > 100 µM; TGI (KM12 colon): > 69.1 µM; TGI (DMS 114 small cell lung): 9.91 µM; TGI (DMS 273 small cell lung): 15.6 µM; TGI (SK-OV-3 ovarian): 37.5 µM; TGI (ACHN renal): > 100 µM

**Q.** For `CN(c1nc(=[N+](C)C)ss1)C1CCCCC1`, which TGI (A549 NSCLC) is on record?
**A.** > 100 µM

**Q.** What about the TGI (M14 melanoma) of the same molecule?
**A.** > 100 µM

**Q.** And the TGI (HCT-116 colon)?
**A.** > 100 µM

**Q.** What about the TGI (OVCAR-8 ovarian) of the same molecule?
**A.** > 100 µM

**Q.** And the TGI (OVCAR-5 ovarian)?
**A.** > 100 µM

**Q.** What about the TGI (LXFL 529 NSCLC) of the same molecule?
**A.** > 100 µM

**Q.** And the TGI (NCI-H23 lung)?
**A.** > 100 µM

**Q.** What about the TGI (CAKI-1 renal) of the same molecule?
**A.** > 100 µM

**Q.** What about the TGI (SK-MEL-2 melanoma) of the same molecule?
**A.** > 100 µM

**Q.** What about the TGI (SNB-75 CNS) of the same molecule?
**A.** > 100 µM

**Q.** What about the TGI (SNB-19 CNS) of the same molecule?
**A.** > 100 µM

**Q.** What about the TGI (HOP-92 NSCLC) of the same molecule?
**A.** > 100 µM

**Q.** And the TGI (NCI-H522 lung)?
**A.** > 100 µM

**Q.** And the TGI (NCI-H226 lung)?
**A.** > 100 µM

**Q.** What about the TGI (OVCAR-4 ovarian) of the same molecule?
**A.** > 100 µM

**Q.** And the TGI (CCRF-CEM leukemia)?
**A.** > 100 µM

**Q.** What about the TGI (RXF-631 renal) of the same molecule?
**A.** > 100 µM

**Q.** And the TGI (SK-MEL-28 melanoma)?
**A.** > 100 µM

**Q.** And the TGI (A498 renal)?
**A.** > 100 µM

**Q.** What about the TGI (TK-10 renal) of the same molecule?
**A.** > 100 µM

**Q.** And the TGI (IGROV1 ovarian)?
**A.** > 100 µM

**Q.** What about the TGI (HL-60(TB) leukemia) of the same molecule?
**A.** > 100 µM

**Q.** What about the TGI (UACC-62 melanoma) of the same molecule?
**A.** > 100 µM

**Q.** What about the TGI (EKVX NSCLC) of the same molecule?
**A.** > 100 µM

**Q.** What about the TGI (SNB-78 CNS) of the same molecule?
**A.** > 100 µM

**Q.** And the TGI (HT29 colon)?
**A.** > 100 µM

**Q.** And the TGI (HOP-18 NSCLC)?
**A.** > 100 µM

**Q.** What about the TGI (MALME-3M melanoma) of the same molecule?
**A.** > 100 µM

**Q.** And the TGI (HCT-15 colon)?
**A.** > 100 µM

**Q.** And the TGI (HCC-2998 colon)?
**A.** > 100 µM

**Q.** And the TGI (SF-295 CNS)?
**A.** > 100 µM

**Q.** And the TGI (K-562 leukemia)?
**A.** > 100 µM

**Q.** What about the TGI (XF 498 CNS) of the same molecule?
**A.** > 100 µM

**Q.** What about the TGI (RXF 393 renal) of the same molecule?
**A.** > 100 µM

**Q.** And the TGI (SN12C renal)?
**A.** > 100 µM

**Q.** And the TGI (SF-268 CNS)?
**A.** > 100 µM

**Q.** What about the TGI (RPMI-8226 leukemia) of the same molecule?
**A.** > 100 µM

**Q.** And the TGI (UO-31 renal)?
**A.** > 100 µM

**Q.** What about the TGI (U251 CNS) of the same molecule?
**A.** > 100 µM

**Q.** What about the TGI (786-0 renal) of the same molecule?
**A.** > 100 µM

**Q.** And the TGI (HOP-62 NSCLC)?
**A.** > 100 µM

**Q.** What about the TGI (LOX IMVI melanoma) of the same molecule?
**A.** > 100 µM

**Q.** And the TGI (UACC-257 melanoma)?
**A.** > 100 µM

**Q.** And the TGI (SF-539 CNS)?
**A.** > 100 µM

**Q.** And the TGI (SR leukemia)?
**A.** > 100 µM

**Q.** What about the TGI (NCI-H460 lung) of the same molecule?
**A.** > 100 µM

**Q.** What about the TGI (DLD-1 colon) of the same molecule?
**A.** > 100 µM

**Q.** And the TGI (MOLT-4 leukemia)?
**A.** > 100 µM

**Q.** And the TGI (M19-MEL melanoma)?
**A.** > 100 µM

**Q.** And the TGI (SW-620 colon)?
**A.** > 100 µM

**Q.** And the TGI (KM20L2 colon)?
**A.** > 100 µM

**Q.** And the TGI (SK-MEL-5 melanoma)?
**A.** > 100 µM

**Q.** What about the TGI (KM12 colon) of the same molecule?
**A.** > 100 µM

**Q.** And the TGI (DMS 114 small cell lung)?
**A.** > 100 µM

**Q.** What about the TGI (DMS 273 small cell lung) of the same molecule?
**A.** > 100 µM

**Q.** What about the TGI (SK-OV-3 ovarian) of the same molecule?
**A.** > 100 µM

**Q.** And the TGI (ACHN renal)?
**A.** > 100 µM
